In ChEMBL document CHEMBL4725296, “The novel HOCl fluorescent probe CAN induced A549 apoptosis by inhibiting chlorination activity of MPO” (Bioorg Med Chem Lett, 2020):
Active and inactive are the calls of the source. No cut-off for these calls is given here.

Tests used:
A549 [1] = test: Antitumor activity against human A549 cells treated chicken chorioallantoic membrane assessed as reduction in tumour mass at 200 uM measured after 3 to 8 days; assay type: functional, cell-based; settings: time day 3-8
A549 [2] = test: Antitumor activity against human A549 cells treated chicken chorioallantoic membrane assessed as increase in apoptosis cells in tumour mass at 200 uM by TUNEL staining based confocal microscopic analysis; assay type: functional, cell-based
RAW264.7 [3] = test: Cytotoxicity against mouse RAW264.7 cells assessed as reduction in cell viability at 1 uM incubated for 12 hrs; assay type: cell-based; settings: raw264.7, 12 h
RAW264.7 [4] = test: Cytotoxicity against mouse RAW264.7 cells assessed as reduction in cell viability at 5 uM incubated for 12 hrs relative to control; assay type: cell-based; settings: raw264.7, 12 h
RAW264.7 [5] = test: Cytotoxicity against mouse RAW264.7 cells assessed as reduction in cell viability at 10 uM incubated for 12 hrs relative to control; assay type: cell-based; settings: raw264.7, 12 h
RAW264.7 [6] = test: Photostability of compound in mouse RAW264.7 cells at 1 uM measured for 10 to 120 secs; assay type: ADME, cell-based; settings: raw264.7, 1 µM, time 10-120 sec
A549 [7] = test: Induction of morphological changes in human A549 cells assessed as appearance of round shaped cells at 1 uM incubated for 48 hrs; assay type: functional, cell-based
A549 [8] = test: Cytotoxicity against human A549 cells assessed as reduction in cell growth at 1 to 10 uM incubated for 24 to 48 hrs; assay type: functional, cell-based; settings: dose microM 1-10, time hrs 24-48
A549 [9] = test: Cytotoxicity against human A549 cells assessed as reduction in cell growth incubated for 24 to 48 hrs; assay type: functional, cell-based
A549 [10] = test: Induction of necrosis in human A549 cells by LDH assay; assay type: functional, cell-based
A549 [11] = test: Induction of morphological changes in human A549 cells assessed as nuclear condensation at 0.5 to 10 uM incubated for 48 hrs by AO and Hoechst 33258 staining based assay; assay type: functional, cell-based; settings: dose microM 0.5-10, time 48.0 hrs
A549 [12] = test: Induction of morphological changes in human A549 cells assessed as nuclear fragmentation at 0.5 to 10 uM incubated for 48 hrs by AO and Hoechst 33258 staining based assay; assay type: functional, cell-based; settings: dose microM 0.5-10, time 48.0 hrs
A549 [13] = test: Induction of apoptosis in human A549 cells assessed as increase in cleaved PARP1 level incubated for 24 hrs by Western blot analysis; assay type: functional, cell-based
HUVEC = test: Cytotoxicity against HUVEC assessed as reduction in cell viability; assay type: cell-based; settings: human
A549 [14] = test: Antitumor activity against human A549 cells treated chicken chorioallantoic membrane assessed as reduction in tumour mass at 50 to 100 uM measured after 3 to 8 days; assay type: functional, cell-based; settings: dose microM 50-100, time day 3-8
A549 [15] = test: Antitumor activity against human A549 cells treated chicken chorioallantoic membrane assessed as increase in apoptosis cells in tumour mass at 50 to 100 uM by TUNEL staining based confocal microscopic analysis; assay type: functional, cell-based; settings: dose microM 50-100
Chorioallantoic membrane [16] = test: Induction of angiogenesis in chicken chorioallantoic membrane at 50 to 100 uM by CAM assay; set-up: species or system Gallus gallus; settings: dose 50-100 µM
Chorioallantoic membrane [17] = test: Induction of angiogenesis in chicken chorioallantoic membrane at 200 uM by CAM assay; set-up: species or system Gallus gallus
[18] = target: T1, Myeloperoxidase (Homo sapiens) (UniProt P05164); test: Effect on MPO in human A549 cells assessed as reduction in chlorination activity at 10 uM measured after 3 to 12 hrs by fluorescence assay; assay type: cell-based; settings: filed as modulator, time hrs 3-12
T1 sequence (whole entry): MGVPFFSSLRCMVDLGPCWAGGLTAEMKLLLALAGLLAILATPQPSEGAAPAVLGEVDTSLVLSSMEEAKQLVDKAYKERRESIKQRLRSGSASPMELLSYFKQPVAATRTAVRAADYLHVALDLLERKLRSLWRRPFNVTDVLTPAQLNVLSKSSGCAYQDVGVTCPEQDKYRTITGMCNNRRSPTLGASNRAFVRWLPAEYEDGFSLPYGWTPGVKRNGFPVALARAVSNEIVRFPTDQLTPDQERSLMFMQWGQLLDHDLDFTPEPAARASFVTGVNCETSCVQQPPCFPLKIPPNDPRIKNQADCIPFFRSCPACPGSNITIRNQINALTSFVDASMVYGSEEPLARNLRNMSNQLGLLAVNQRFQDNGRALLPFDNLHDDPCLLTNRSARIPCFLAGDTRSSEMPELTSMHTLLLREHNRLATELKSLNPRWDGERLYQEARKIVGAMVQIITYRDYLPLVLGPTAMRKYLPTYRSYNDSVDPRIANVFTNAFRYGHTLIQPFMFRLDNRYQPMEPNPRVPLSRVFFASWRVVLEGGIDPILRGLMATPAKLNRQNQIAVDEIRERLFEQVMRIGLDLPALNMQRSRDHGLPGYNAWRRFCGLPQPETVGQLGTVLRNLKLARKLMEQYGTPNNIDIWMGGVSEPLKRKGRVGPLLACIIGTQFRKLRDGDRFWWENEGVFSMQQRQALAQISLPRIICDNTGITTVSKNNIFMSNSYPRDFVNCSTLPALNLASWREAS

[19] = target: T1, Myeloperoxidase (Homo sapiens); test: Effect on MPO in human A549 cells assessed as reduction in peroxidation activity at 10 uM measured after 3 to 12 hrs by fluorescence assay; assay type: cell-based; settings: filed as modulator, time hrs 3-12
[20] = Drug uptake in LPS stimulated mouse RAW264.7 cells assessed as increase in HOCL mediated fluorescence intensity at 1 uM after 1 hr by confocal microscopic analysis; assay type: ADME; settings: raw264.7, 1 h

In the case of `O=c1[nH]cc(F)c(=O)[nH]1`, the Activity (A549 [1]) is reported as “Active” and the Activity (A549 [2]) is reported as “Active”.

For `CCN(CC)c1ccc2cc(C3Nc4cccc5cccc(c45)N3)c(=O)oc2c1`, the Activity (RAW264.7 [3]) was “Non-Toxic”, the Activity (RAW264.7 [4]) was 61% and the Activity (RAW264.7 [5]) was 50.5%. The Stabilty (RAW264.7 [6]) was “Stable”, the Activity (A549 [7]) was “Active” and the Activity (A549 [8]) was “Active”. For the same compound, the IC50 (A549 [9]) was 4.3 µM, the Activity (A549 [10]) was “inactive” and the Activity (A549 [11]) was “Active”. The Activity (A549 [12]) was “Active”, the Activity (A549 [13]) was “Active” and the Activity (HUVEC) was “Non-Toxic”. The Activity (A549 [14]) was “Active”, the Activity (A549 [15]) was “Active” and the Activity (Chorioallantoic membrane [16]) was “Non-Toxic”. The Activity (Chorioallantoic membrane [17]) was “Non-Toxic”, the Activity [18] was “Active” and the Activity [19] was “Active”. For the same compound, the Drug uptake [20] was “Active”.
